Laboratory results: US7244431B2, “Allergy vaccines and their preparation” (priority 2000, dated 2007)

What was measured:
[1] = tested on: IgE antibodies in sera from birch pollen allergic patients; test: ELISA detection of peptide- and rBet v 1-specific IgE antibodies; assay type: binding, human
In short: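 IgE binding detected by 1:1000 alkaline-phosphatase mouse monoclonal anti-human IgE after overnight 4 °C incubation with 1:3-diluted sera. Sera came from 60 birch pollen allergic patients (25 male, 35 female, age 19–60) and a non-atopic control.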

[2] = tested on: birch pollen allergic patients; test: Skin prick testing of allergic patients; assay type: in vivo, human; settings: 100 μg/ml
Protocol: SPTs were performed on the individuals forearms as described ([…]. et al. (1997) J. Clin Invest. 99, 1673-168; Dreborg S: (1989) J. Am. Acad. DerMatol. 21, 820-821). […] In addition standardized skin prick solutions (birch pollen extract and histamine) (Allergopharma, Reinbek, Germany) were tested. Reactions were recorded 20 minutes after SPT by photography and by transferring the ballpoint pen-surrounded wheal area with a scotch tape to paper.

## LFPKVAPQAISSVENIEGNGGPGTIKKISFC [Peptide P2, Bet v 1-derived synthetic peptide, position aa 30-59, one cysteine added]
[1]; serum of NHS, non-allergic control individual
  IgE (OD): — (Dashes indicate reactivities below the cut-off level (OD=0.050))
[1]; serum of patient 1
  IgE (OD): — (Dashes indicate reactivities below the cut-off level (OD=0.050))
[1]; serum of patient 2
  IgE (OD): — (Dashes indicate reactivities below the cut-off level (OD=0.050))
[1]; serum of patient 3
  IgE (OD): — (Dashes indicate reactivities below the cut-off level (OD=0.050))
[1]; serum of patient 4
  IgE (OD): — (Dashes indicate reactivities below the cut-off level (OD=0.050))
[1]; serum of patient 5
  IgE (OD): — (Dashes indicate reactivities below the cut-off level (OD=0.050))
[1]; serum of patient 6
  IgE (OD): — (Dashes indicate reactivities below the cut-off level (OD=0.050))
[1]; serum of patient 7
  IgE (OD): — (Dashes indicate reactivities below the cut-off level (OD=0.050))
[1]; serum of patient 8
  IgE (OD): — (Dashes indicate reactivities below the cut-off level (OD=0.050))
[1]; serum of patient 9
  IgE (OD): — (Dashes indicate reactivities below the cut-off level (OD=0.050))
[1]; serum of patient 10
  IgE (OD): — (Dashes indicate reactivities below the cut-off level (OD=0.050))
[1]; serum of patient 11
  IgE (OD): — (Dashes indicate reactivities below the cut-off level (OD=0.050))
[1]; serum of patient 12
  IgE (OD): — (Dashes indicate reactivities below the cut-off level (OD=0.050))
[1]; serum of patient 13
  IgE (OD): — (Dashes indicate reactivities below the cut-off level (OD=0.050))
[1]; serum of patient 14
  IgE (OD): — (Dashes indicate reactivities below the cut-off level (OD=0.050))
[1]; serum of patient 15
  IgE (OD): — (Dashes indicate reactivities below the cut-off level (OD=0.050))
[1]; serum of patient 16
  IgE (OD): — (Dashes indicate reactivities below the cut-off level (OD=0.050))
[1]; serum of patient 17
  IgE (OD): — (Dashes indicate reactivities below the cut-off level (OD=0.050))
[1]; serum of patient 18
  IgE (OD): — (Dashes indicate reactivities below the cut-off level (OD=0.050))
[1]; serum of patient 19
  IgE (OD): — (Dashes indicate reactivities below the cut-off level (OD=0.050))
[1]; serum of patient 20
  IgE (OD): — (Dashes indicate reactivities below the cut-off level (OD=0.050))
[1]; serum of patient 21
  IgE (OD): — (Dashes indicate reactivities below the cut-off level (OD=0.050))
[1]; serum of patient 22
  IgE (OD): — (Dashes indicate reactivities below the cut-off level (OD=0.050))
[1]; serum of patient 23
  IgE (OD): — (Dashes indicate reactivities below the cut-off level (OD=0.050))
[1]; serum of patient 24
  IgE (OD): — (Dashes indicate reactivities below the cut-off level (OD=0.050))
[1]; serum of patient 25
  IgE (OD): — (Dashes indicate reactivities below the cut-off level (OD=0.050))
[1]; serum of patient 26
  IgE (OD): — (Dashes indicate reactivities below the cut-off level (OD=0.050))
[1]; serum of patient 27
  IgE (OD): — (Dashes indicate reactivities below the cut-off level (OD=0.050))
[1]; serum of patient 28
  IgE (OD): — (Dashes indicate reactivities below the cut-off level (OD=0.050))
[1]; serum of patient 29
  IgE (OD): — (Dashes indicate reactivities below the cut-off level (OD=0.050))
[1]; serum of patient 30
  IgE (OD): — (Dashes indicate reactivities below the cut-off level (OD=0.050))
[1]; serum of patient 31
  IgE (OD): — (Dashes indicate reactivities below the cut-off level (OD=0.050))
[1]; serum of patient 32
  IgE (OD): — (Dashes indicate reactivities below the cut-off level (OD=0.050))
[1]; serum of patient 33
  IgE (OD): — (Dashes indicate reactivities below the cut-off level (OD=0.050))
[1]; serum of patient 34
  IgE (OD): — (Dashes indicate reactivities below the cut-off level (OD=0.050))
[1]; serum of patient 35
  IgE (OD): — (Dashes indicate reactivities below the cut-off level (OD=0.050))
[1]; serum of patient 36
  IgE (OD): — (Dashes indicate reactivities below the cut-off level (OD=0.050))
[1]; serum of patient 37
  IgE (OD): — (Dashes indicate reactivities below the cut-off level (OD=0.050))
[1]; serum of patient 38
  IgE (OD): — (Dashes indicate reactivities below the cut-off level (OD=0.050))
[1]; serum of patient 39
  IgE (OD): — (Dashes indicate reactivities below the cut-off level (OD=0.050))
[1]; serum of patient 40
  IgE (OD): — (Dashes indicate reactivities below the cut-off level (OD=0.050))
[1]; serum of patient 41
  IgE (OD): — (Dashes indicate reactivities below the cut-off level (OD=0.050))
[1]; serum of patient 42
  IgE (OD): — (Dashes indicate reactivities below the cut-off level (OD=0.050))
[1]; serum of patient 43
  IgE (OD): — (Dashes indicate reactivities below the cut-off level (OD=0.050))
[1]; serum of patient 44
  IgE (OD): — (Dashes indicate reactivities below the cut-off level (OD=0.050))
[1]; serum of patient 45
  IgE (OD): — (Dashes indicate reactivities below the cut-off level (OD=0.050))
[1]; serum of patient 46
  IgE (OD): — (Dashes indicate reactivities below the cut-off level (OD=0.050))
[1]; serum of patient 47
  IgE (OD): — (Dashes indicate reactivities below the cut-off level (OD=0.050))
[1]; serum of patient 48
  IgE (OD): — (Dashes indicate reactivities below the cut-off level (OD=0.050))
[1]; serum of patient 49
  IgE (OD): — (Dashes indicate reactivities below the cut-off level (OD=0.050))
[1]; serum of patient 50
  IgE (OD): — (Dashes indicate reactivities below the cut-off level (OD=0.050))
[1]; serum of patient 51
  IgE (OD): — (Dashes indicate reactivities below the cut-off level (OD=0.050))
[1]; serum of patient 52
  IgE (OD): — (Dashes indicate reactivities below the cut-off level (OD=0.050))
[1]; serum of patient 53
  IgE (OD): — (Dashes indicate reactivities below the cut-off level (OD=0.050))
[1]; serum of patient 54
  IgE (OD): — (Dashes indicate reactivities below the cut-off level (OD=0.050))
[1]; serum of patient 55
  IgE (OD): — (Dashes indicate reactivities below the cut-off level (OD=0.050))
[1]; serum of patient 56
  IgE (OD): — (Dashes indicate reactivities below the cut-off level (OD=0.050))
[1]; serum of patient 57
  IgE (OD): — (Dashes indicate reactivities below the cut-off level (OD=0.050))
[1]; serum of patient 58
  IgE (OD): — (Dashes indicate reactivities below the cut-off level (OD=0.050))
[1]; serum of patient 59
  IgE (OD): — (Dashes indicate reactivities below the cut-off level (OD=0.050))
[1]; serum of patient 60
  IgE (OD): — (Dashes indicate reactivities below the cut-off level (OD=0.050))
[2]; individual 1
  mean wheal diameter: 0 mm
[2]; individual 2
  mean wheal diameter: 0 mm
[2]; individual 3
  mean wheal diameter: 0 mm
[2]; individual 4
  mean wheal diameter: 0 mm
[2]; individual 5
  mean wheal diameter: 0 mm
[2]; individual 6 (allergic, without birch pollen allergy)
  mean wheal diameter: 0 mm
